The values below come from patent publication US20090306171A1, “INDOLE COMPOUNDS HAVING C4-AMIDE SUBSTITUENTS AND USE THEREOF AS PHOSPHOLIPASE-A2 INHIBITORS” (priority 2005, published 2009).

For one series, the target named is human PLA2 IB enzyme (Homo sapiens, UniProt P04054). As to conditions: pyrene substrate release from vesicles; Singer, Ghomashchi et al. 2002; read-out: IC50 value versus the human PLA2 IB enzyme; cited from earlier work.
Series [1] is described as follows: Example 5C serum cholesterol and triglycerides, mice on high fat/high sucrose diabetogenic diet. The format is in vivo. As to conditions: 10 weeks. The procedure: (§1) ILY-4001 (FIG. 2) was evaluated as a PLA2 IB inhibitor in a set of experiments using wild-type mice and genetically deficient PLA2 (−/−) mice (also referred to herein as PLA2 knock-out (KO) mice). In these experiments, wild-type and PLA2 (−/−) mice were maintained on a high fat/high sucrose diet, details of which are described below.
(§2) Briefly, four groups were set up, each having six mice. Three of the groups included six wild-type PLA2 (+/+) mice in each group (eighteen mice total), and one of the groups included six genetically deficient PLA2 (−/−) mice. One of the wild-type groups was used as a wild-type control group, and was not treated with ILY-4001. The other two wild-type groups were treated with ILY-4001-one group at a lower dose (indicated as “L” in Table 1) of 25 mg/kg/day, and the other at a higher dose (indicated as “H” in Table 1) of 90 mg/kg/day. The group comprising the PLA2 (−/−) mice was used as a positive control group.
(§3) The experimental protocol used in this study was as follows. The four groups of mice, including wild type and isogenic PLA2 (−/−) C57BL/J mice were acclimated for three days on a low fat/low carbohydrate diet After the three day acclimation phase, the animals were fasted overnight and serum samples taken to establish baseline plasma cholesterol, triglyceride, and glucose levels, along with baseline body weight. The mice in each of the treatment groups were then fed a high fat/high sucrose diabetogenic diet (Research Diets D12331). 1000 g of the high fat/high sucrose D12331 diet was composed of casein (228 g), DL-methionine (2 g), maltodextrin 10 (170 g), sucrose (175 g), soybean oil (25 g), hydrogenated coconut oil (333.5 g), mineral mix S10001 (40 g), sodium bicarbonate (10.5 g), potassium citrate (4 g), vitamin mix V10001 (10 g), and choline bitartrate (2 g). This diet was supplemented with ILY-4001 treatments such that the average daily dose of the compound ingested by a 25 g mouse was: 0 mg/kg/day (wild-type control group and PLA2 (−/−) control group); 25 mg/kg/day (low-dose wild-type treatment group), or 90 mg/kg/day (high-dose wild-type treatment group). The animals were maintained on the high fat/high sucrose diet, with the designated ILY-4001 supplementation, for a period of ten weeks.
Body weight measurements were taken for all animals in all treatment and control groups at the beginning of the treatment period and at 4 weeks and 10 weeks after initiation of the study. (See Example 5A). Blood draws were also taken at the beginning of the treatment period (baseline) and at 4 weeks and 10 weeks after initiation of the study, in order to determine fasting glucose (See Example 5B). Cholesterol and triglyceride levels were determined from blood draws taken at the beginning of the treatment (baseline) and at ten weeks. […]

The target of another series is mouse PLA2 IB enzyme (Mus musculus, UniProt Q9Z0Y2). Conditions: pyrene substrate release from vesicles; Singer, Ghomashchi et al. 2002; read-out: IC50 value versus the mouse PLA2 IB enzyme; cited from earlier work.
mouse PLA2 IB enzyme, sequence (Q9Z0Y2 23-146): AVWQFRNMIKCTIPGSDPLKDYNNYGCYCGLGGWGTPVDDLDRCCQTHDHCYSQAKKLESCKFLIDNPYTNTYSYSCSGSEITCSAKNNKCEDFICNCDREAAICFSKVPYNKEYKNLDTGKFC
Series [2] is described as follows: Example 5A body weight gain, mice on high fat/high sucrose diabetogenic diet. The format is in vivo. Conditions: for body weight gain compared to the wild-type control group: week 4 and week 10. The protocol: as §1, §2, §3
Body weight measurements were taken for all animals in all treatment and control groups at the beginning of the treatment period and at 4 weeks and 10 weeks after initiation of the study. (See Example 5A). Blood draws were also taken at the beginning of the treatment period (baseline) and at 4 weeks and 10 weeks after initiation of the study, in order to determine fasting glucose (See Example 5B). Cholesterol and triglyceride levels were determined from blood draws taken at the beginning of the treatment (baseline) and at ten weeks. (See Example 5C).
In the study generally described above in Example 5, body weight measurements were taken for all animals in all treatment and control groups at the beginning of the treatment period and at 4 weeks and 10 weeks after initiation of the study.

A further series can be described thus: Stability at low pH. The format is physicochemical.
The subject of the next series is Caco-2 monolayers. In words: Example 6B Caco-2 permeability study. The series is classed as in vitro ADME, human. As to conditions: for apparent permeability: apical to basolateral, Caco-2 monolayers. The procedure:
The culture medium was refreshed every 48 hours.
Papp=(dQ/dt)×(1/C0)×(1/A)

The nature of series [3]: Example 5B fasting serum glucose, mice on high fat/high sucrose diabetogenic diet. The format is in vivo. As to conditions: low dose (25 mg/kg/day). The protocol: as §1, §2
The experimental protocol used in this study was as follows. […]
Body weight measurements were taken for all animals in all treatment and control groups at the beginning of the treatment period and at 4 weeks and 10 weeks after initiation of the study. […] Cholesterol and triglyceride levels were determined from blood draws taken at the beginning of the treatment (baseline) and at ten weeks. […]

Series [4] is described as follows: Example 6C pharmokinetic study (IV and oral). The format is in vivo, mice. Conditions: 30 mg/kg oral. The text has this: This example characterized ILY-4001 [2-(3-(2-amino-2-oxoacetyl)-1-(biphenyl-2-ylmethyl)-2-methyl-1H-indol-4-yloxy)acetic acid], alternatively referred to herein as methyl indoxam, with respect to activity, as determined by IC50 assay (Example 6A), with respect to cell absorption, as determined by in-vitro Caco-2 assay (Example 6B) and with respect to bioavailability, as determined using in-vivo mice studies (Example 6C).
This example evaluated the bioavailability of ILY-4001 [2-(3-(2-amino-2-oxoacetyl)-1-(biphenyl-2-ylmethyl)-2-methyl-1H-indol-4-yloxy)acetic acid], alternatively referred to herein as methyl indoxam. […]
Bioavailability was calculated as a ratio of AUC-oral/AUC-intravenous (IV). To determine this ratio, a first set of subject animals were given a measured intravenous (IV) dose of ILY-4001, followed by a determination of ILY-4001 levels in the blood at various time points after administration (e.g., 5 minutes through 24 hours). Another second set of animals was similarly dosed using oral administration, with blood levels of ILY-4001 determined at various time points after administration (e.g., 30 minutes through 24 hours). The level of ILY-4001 in systemic circulation were determined by generally accepted methods (for example as described in Evans, G., A Handbook of Bioanalysis and Drug Metabolism. Boca Raton, CRC Press (2004)). […]

human PLA2 IB enzyme, sequence (P04054 23-148): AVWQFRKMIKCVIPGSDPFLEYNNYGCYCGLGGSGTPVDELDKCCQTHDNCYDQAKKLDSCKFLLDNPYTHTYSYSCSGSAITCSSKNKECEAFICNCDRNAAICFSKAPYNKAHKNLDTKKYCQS

As usually defined, the IC50 is the concentration at which inhibition is half-maximal. As for `Cc1c(C(=O)C(N)=O)c2c(OCC(=O)O)cccc2n1Cc1ccccc1-c1ccccc1` [ILY-4001, 2-(3-(2-amino-2-oxoacetyl)-1-(biphenyl-2-ylmethyl)-2-methyl-1H-indol-4-yloxy)acetic acid], the IC50 at human PLA2 IB enzyme is approximately 200 nM; on mouse PLA2 IB enzyme, approximately 150 nM. The “plasma levels of cholesterol” value in series [1] (high dose (90 mg/kg/day)) and in series [1] (low dose (25 mg/kg/day)) was “substantially reduced” throughout. The “plasma levels of triglycerides” value in series [1] (high dose (90 mg/kg/day)) and in series [1] (low dose (25 mg/kg/day)) was “substantially reduced” in each case. The “body weight gain compared to the wild-type control group” value in series [2] (25 mg/kg/d in diet) and in series [2] (90 mg/kg/d in diet) was “significantly reduced body weight gains” in each case. The “body weight gain, extent of modulation relative to PLA2 (−/−) mice” value in series [2] (25 mg/kg/d, four weeks) was “approaching that achieved in the PLA2 (−/−) mice”; in series [2] (90 mg/kg/d, four weeks) it was “approaching that achieved in the PLA2 (−/−) mice”; in series [2] (low-dose (25 mg/kg/d), ten weeks), “comparable to that achieved in the PLA2 (−/−) mice”. Further, the “stability at low pH” value in “Stability at low pH” was “stable at low pH”. Moreover, in the series with Caco-2 monolayers, the apparent permeability entry is “around 1.66×10^−7 cm/s”. The “absorption from the GI lumen” value in the series with Caco-2 monolayers (based on Caco-2 assays and pharmokinetic studies) is reported as “relatively low absorption”. For the same compound, the fasting glucose levels result in series [3] (week four) is given as “moderately beneficial effect”; in series [3] (week ten), “a beneficial effect was not observed”. Also, the “level of non-absorption from the GI tract into systemic circulation” value in series [4] is on record as approximately 72%.

As for Lucifer Yellow, the apparent permeability entry in the series on Caco-2 monolayers was “around 2.82×10^−7+/−0.37×10^−7 cm/s”.
